Assay results from ChEMBL document CHEMBL1201862, “PubChem BioAssay data set” (2004).
Active and inactive are the calls of the source. Rule as the data show it, for most assays here: actives have a measured EC50 and inactives only a lower limit.

What was measured:
[1] = molecular target: T1, Methionyl-tRNA synthetase, putative (Trypanosoma brucei brucei, UniProt Q38C91); type: functional, Trypanosoma brucei brucei strain 927/4 GUTat10.1
T1 sequence (Q38C91 whole entry): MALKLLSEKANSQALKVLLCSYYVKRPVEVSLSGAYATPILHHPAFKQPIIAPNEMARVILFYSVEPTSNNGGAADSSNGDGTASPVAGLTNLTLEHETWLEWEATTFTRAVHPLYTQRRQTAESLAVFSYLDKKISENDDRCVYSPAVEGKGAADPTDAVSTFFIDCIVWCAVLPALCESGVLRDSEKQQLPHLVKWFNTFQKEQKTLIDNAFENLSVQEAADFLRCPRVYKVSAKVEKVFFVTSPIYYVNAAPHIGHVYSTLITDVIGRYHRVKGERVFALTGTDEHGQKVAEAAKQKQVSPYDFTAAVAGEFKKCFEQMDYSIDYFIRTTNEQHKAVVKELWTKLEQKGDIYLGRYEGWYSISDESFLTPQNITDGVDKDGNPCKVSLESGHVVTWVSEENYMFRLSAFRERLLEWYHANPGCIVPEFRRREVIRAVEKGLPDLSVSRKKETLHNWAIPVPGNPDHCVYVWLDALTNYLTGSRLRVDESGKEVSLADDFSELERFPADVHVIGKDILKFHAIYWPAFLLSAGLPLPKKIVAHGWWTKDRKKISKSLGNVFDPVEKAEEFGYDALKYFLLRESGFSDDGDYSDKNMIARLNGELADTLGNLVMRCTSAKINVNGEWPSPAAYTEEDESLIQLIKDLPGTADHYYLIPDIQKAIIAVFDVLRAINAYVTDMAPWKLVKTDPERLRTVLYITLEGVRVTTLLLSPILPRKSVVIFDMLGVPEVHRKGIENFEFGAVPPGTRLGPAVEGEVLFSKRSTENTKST

[2] = Counterscreen for inhibitors of Trypanosoma brucei methionyl tRNA synthetase (MetRS): Luminescence-based cell-based high throughput dose response assay to identify compounds that are cytotoxic to Jurkat human T lymphocyte cells.; type: functional
[3] = molecular target: T1, Methionyl-tRNA synthetase, putative; type: functional, Trypanosoma brucei brucei strain 927/4 GUTat10.1; remark: listed apart in the source
cells [4] = type: functional, cell-based
[5] = molecular target: T2, Trace amine-associated receptor 1 (Homo sapiens, UniProt Q96RJ0); assay: Counterscreen for agonists of the human trace amine associated receptor 1 (hTAAR1): Fluorescence-based cell-based high throughput dose response assay to identify hTAAR1 agonist that also desensitize TAAR1 receptor response.; type: functional
T2 sequence (Q96RJ0 whole entry): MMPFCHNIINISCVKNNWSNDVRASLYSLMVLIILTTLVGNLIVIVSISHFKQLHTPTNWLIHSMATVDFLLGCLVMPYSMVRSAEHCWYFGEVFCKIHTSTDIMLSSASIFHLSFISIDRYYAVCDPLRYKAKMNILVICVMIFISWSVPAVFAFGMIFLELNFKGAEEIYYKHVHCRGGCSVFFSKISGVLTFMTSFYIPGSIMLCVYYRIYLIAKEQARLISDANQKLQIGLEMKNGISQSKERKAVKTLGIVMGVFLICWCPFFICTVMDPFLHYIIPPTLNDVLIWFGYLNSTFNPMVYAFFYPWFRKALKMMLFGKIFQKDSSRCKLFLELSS

cells [6] = type: functional, cell-based; remark: listed apart in the source
[7] = molecular target: T2, Trace amine-associated receptor 1; assay: Fluorescence-based cell-based high throughput dose response assay to identify agonists of the human trace amine associated receptor 1 (TAAR1).; type: functional
[8] = molecular target: Fructose-bisphosphate aldolase (Mycobacterium tuberculosis, UniProt P9WQA3); assay: Fluorescence-based biochemical high throughput dose response assay for inhibitors of the fructose-bisphosphate aldolase (FBA) of M. tuberculosis.; type: functional
Sequence of Fructose-bisphosphate aldolase (P9WQA3 whole entry): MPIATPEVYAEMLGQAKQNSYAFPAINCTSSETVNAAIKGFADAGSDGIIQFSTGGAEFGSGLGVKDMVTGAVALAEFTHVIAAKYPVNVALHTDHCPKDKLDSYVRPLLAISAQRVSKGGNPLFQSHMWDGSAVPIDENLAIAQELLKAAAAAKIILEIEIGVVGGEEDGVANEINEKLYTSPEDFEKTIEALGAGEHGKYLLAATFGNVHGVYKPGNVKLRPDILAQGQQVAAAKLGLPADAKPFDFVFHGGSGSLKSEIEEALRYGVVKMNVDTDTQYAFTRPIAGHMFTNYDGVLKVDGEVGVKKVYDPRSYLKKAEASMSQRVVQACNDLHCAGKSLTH

Beta-lactamase [9] = molecular target: Beta-lactamase (Pseudomonas aeruginosa, UniProt Q79MP6);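 also: biochemical dose-response test of metallo-beta-lactamase enzyme inhibition, read out by epi-absorbance; purified recombinant IMP-1 metallo-beta-lactamase with nitrocefin as substrate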
Sequence of Beta-lactamase (Pseudomonas aeruginosa, UniProt Q79MP6) (Q79MP6 whole entry): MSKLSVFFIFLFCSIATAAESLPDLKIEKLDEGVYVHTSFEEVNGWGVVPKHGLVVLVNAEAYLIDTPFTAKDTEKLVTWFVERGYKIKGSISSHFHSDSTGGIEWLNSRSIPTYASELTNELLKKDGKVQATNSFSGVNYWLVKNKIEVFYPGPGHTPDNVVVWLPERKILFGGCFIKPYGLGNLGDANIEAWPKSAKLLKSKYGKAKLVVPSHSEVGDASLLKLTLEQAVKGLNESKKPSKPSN

[10] = Luminescence Cell-Based Dose Response to Identify Activators of 5'UTR Stem-Loop Driven Prion Protein mRNA Translation in H4-C Neuroglioblastoma Cells. [Related pubchem assays: 1829 (Project Summary), 1814 (Primary HTS)]; type: functional
BJ [11] = assay: cytotoxicity toward Ras-transformed BJeLR fibroblasts, dose response, cell-based, alamar blue fluorescence, cherrypicked samples (AID 2631); type: functional; details: Homo sapiens;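 also: confirmatory dose-response assay in RAS-dependent BJ fibroblasts engineered with TERT, LT and ST, with cytotoxicity read by fluorescence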
BJ [12] = assay: cytotoxicity toward BJ-TERT-LT-ST fibroblasts, dose response, cell-based, RAS-independent, luminescence (AID 1935); type: functional; details: Homo sapiens;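 also: BJ fibroblasts immortalized with TERT plus LT and ST oncogenes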
BJ [13] = assay: cells; type: functional, cell-based; details: Homo sapiens
[14] = cytotoxicity toward DRD oncogenic fibroblasts, dose response, cell-based, non-viral oncogenic, luminescence (AID 1934); type: functional; details: Homo sapiens
[15] = test system: Streptococcus sp. 'group A'; assay: growth inhibition of control SK(-) GAS strain, dose response, counter-screen for streptokinase expression inhibitor project, luminescence, kanamycin, BacTiterGlo, confirmation (AID 1900); type: functional, organism-based
[16] = Luminescence Cell-Based Dose Confirmation to Identify Activators of 5'UTR Stem-Loop Driven Alpha-Synuclein mRNA Translation in H4 Neuroglioblastoma Cells. [Related pubchem assays: 1829 (Project Summary), 1814 (Primary HTS)]; type: functional
BJ [17] = assay: cytotoxicity toward BJ-TERT fibroblasts, dose response, cell-based, RAS-independent, luminescence (AID 1933); type: functional; details: Homo sapiens
Beta-lactamase [18] = molecular target: Beta-lactamase (Salmonella choleraesuis (strain SC-B67), UniProt Q5J463)
Sequence of Beta-lactamase (Salmonella choleraesuis (strain SC-B67), UniProt Q5J463) (Q5J463 whole entry): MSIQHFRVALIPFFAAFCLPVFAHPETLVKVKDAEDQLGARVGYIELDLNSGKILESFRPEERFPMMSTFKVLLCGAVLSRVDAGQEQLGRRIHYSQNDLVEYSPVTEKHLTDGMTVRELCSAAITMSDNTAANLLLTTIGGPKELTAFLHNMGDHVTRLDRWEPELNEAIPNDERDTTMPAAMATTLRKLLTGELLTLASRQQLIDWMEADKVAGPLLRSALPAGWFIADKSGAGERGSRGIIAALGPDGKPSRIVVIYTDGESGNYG

[19] = Luminescence Cell-Based Dose Response to Identify Activators of Luciferase Translation or Activity in H4-C Neuroglioblastoma Cells. [Related pubchem assays: 1829 (Project Summary), 1814 (Primary HTS)]; type: functional
Streptococcus = assay: Group A Streptococcus viability loss, dose response, counter-screen for streptokinase expression inhibitor project, luminescence, BacTiterGlo (AID 1915); type: functional, organism-based;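 also: potency for reduction of bacterial viability or growth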
Streptokinase A = molecular target: T3, Streptokinase A (Streptococcus pyogenes serotype M1, UniProt P10520); assay: S. pyogenes streptokinase expression inhibitors, potency, dose response, plasminogen activation absorbance, OD405 (AID 1914); type: functional, Streptococcus pyogenes M1 GAS;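 also: secreted streptokinase activity via plasminogen activation per viability signal from cell pellet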
T3 sequence (P10520 whole entry): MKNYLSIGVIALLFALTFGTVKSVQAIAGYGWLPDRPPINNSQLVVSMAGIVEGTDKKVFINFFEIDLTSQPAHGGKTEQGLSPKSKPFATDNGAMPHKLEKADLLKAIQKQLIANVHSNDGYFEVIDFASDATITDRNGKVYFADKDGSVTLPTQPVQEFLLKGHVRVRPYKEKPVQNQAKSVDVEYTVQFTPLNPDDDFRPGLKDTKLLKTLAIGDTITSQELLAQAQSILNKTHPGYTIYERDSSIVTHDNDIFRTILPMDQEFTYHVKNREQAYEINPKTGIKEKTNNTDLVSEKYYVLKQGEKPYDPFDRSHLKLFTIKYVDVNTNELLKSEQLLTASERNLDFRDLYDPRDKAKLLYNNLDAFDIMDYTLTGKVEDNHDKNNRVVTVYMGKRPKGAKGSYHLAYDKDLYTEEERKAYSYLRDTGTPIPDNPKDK

H4 = assay: Luminescence Cell-Based Dose Response HTS to Identify Activators of 5'UTR Stem-Loop Driven Prion Protein mRNA Translation in H4 Neuroglioblastoma Cells. [Related pubchem assays: 1829 (Project Summary), 1814 (Primary HTS)]; type: functional; details: Homo sapiens

O=C(NCCc1ccc(Cl)cc1)Nc1ccc(Cl)cc1
IC50 [1]: 2.58 µM (active)
IC50 [2]: 83.3 µM (inactive)
IC50 [3]: 119 µM (inactive)

O=C(NCCc1cccs1)c1ccc(Cl)cc1
EC50 (cells [4]): > 29.9 µM (inactive)
IC50 [5]: 3.48 µM (active)
IC50 (cells [6]): > 29.9 µM (inactive)
EC50 [7]: 1.19 µM (active)

Cc1nn(-c2ccccc2)c(O)c1/C=N/c1cnc2ccccc2c1
IC50 [8]: > 3.33 µM (active)

CCC(/C=C1\Sc2ccc3ccccc3c2N1C)=C\c1sc2ccc3ccccc3c2[n+]1C
IC50 (Beta-lactamase [9]): > 59.6 µM (inactive)
EC50 [10]: > 12 µM (not active)
EC50 (BJ [11]): < 0.104 µM (active)
EC50 (BJ [12]): 0.343 µM (inconclusive)
EC50 (BJ [13]): 0.352 µM (inconclusive)
EC50 [14]: 0.395 µM (active)
EC50 [15]: 3.13 µM (active)
EC50 [16]: 3.46 µM (inconclusive)
EC50 (BJ [17]): 0.164 µM (active)
IC50 (Beta-lactamase [18]): > 59.6 µM (inactive)
EC50 [19]: > 12 µM (not active)
EC50 (Streptococcus): 15.5 µM (active)
EC50 (Streptokinase A): > 150 µM (not active)
EC50 (H4): > 120 µM (not active)
